Test system: A549 cells
Assay: Cell viability
Conditions: 24 h, 0.0005–0.1 mg/ml

## CC(C(=O)O)c1cccc(C(=O)c2ccccc2)c1 (stereo not shown) [Free KTP, Ketoprofen]
  in vitro cytotoxicity (MTT): did not show significant cytotoxicity

From PMC7032088 (Asian Journal of Pharmaceutical Sciences, 2017)
